Reference: PubChem BioAssay (NCI)
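GI50 = concentration required for 50% inhibition of growth. TGI is the concentration that stops growth completely.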

Experiments:
Experiment in all cases: NCI-60 cell line screen, 384-well format; in the data active = GI50 below about 0.43 µM; inactive = the rest
[1] = system: NCI/ADR-RES ovarian
[2] = system: SNB-19 CNS
[3] = system: MALME-3M melanoma
[4] = system: SF-295 CNS
[5] = system: ACHN renal
[6] = system: U251 glioblastoma
[7] = system: NCI-H23 lung
[8] = system: HCT-15 colon
[9] = system: IGROV1 ovarian
[10] = system: K-562 leukemia
[11] = system: NCI-H522 lung
[12] = system: TK-10 renal
[13] = system: NCI-H226 lung
[14] = system: SF-539 CNS
[15] = system: SR leukemia
[16] = system: SN12C renal
[17] = system: HOP-92 NSCLC
[18] = system: SF-268 CNS
[19] = system: HL-60(TB) leukemia
[20] = system: HCC-2998 colon
[21] = system: MDA-MB-231 breast
[22] = system: BT-549 breast
[23] = system: SK-MEL-28 melanoma
[24] = system: SK-MEL-2 melanoma
[25] = system: CAKI-1 renal
[26] = system: HS 578T breast
[27] = system: SK-MEL-5 melanoma
[28] = system: A549 NSCLC
[29] = system: HOP-62 NSCLC
[30] = system: HT29 colon
[31] = system: MOLT-4 leukemia
[32] = system: OVCAR-3 ovarian
[33] = system: NCI-H460 NSCLC
[34] = system: DU-145 prostate
[35] = system: OVCAR-4 ovarian
[36] = system: OVCAR-8 ovarian
[37] = system: RXF 393 renal
[38] = system: 786-0 renal
[39] = system: T-47D breast
[40] = system: EKVX NSCLC
[41] = system: SK-OV-3 ovarian
[42] = system: MCF7 breast
[43] = system: COLO 205 colon
[44] = system: NCI-H322M lung
[45] = system: HCT-116 colon
[46] = system: MDA-MB-435 melanoma
[47] = system: MDA-MB-468 breast

Cc1cc2c(cc1C)NC1=C(N2)OC(c2c3ccccc3cc3ccccc23)C1=O (stereo not drawn)
825 nM: TGI [29]
13600 nM: TGI [5]
1860 nM: TGI [13]
581 nM: TGI [22]
2810 nM: TGI [21]
759 nM: TGI [45]
6250 nM: TGI [39]
2630 nM: TGI [9]
582 nM: TGI [32]
1050 nM: TGI [18]
380 nM: TGI [14]
5690 nM: TGI [25]
794 nM: TGI [36]
1910 nM: TGI [42]
340 nM: TGI [15]
355 nM: TGI [1] | TGI [26]
1970 nM: TGI [35]
425 nM: TGI [46]
436 nM: TGI [47]
1430 nM: TGI [34]
1680 nM: TGI [43]
7540 nM: TGI [12]
415 nM: TGI [24]
1100 nM: TGI [3]
1540 nM: TGI [2]
1570 nM: TGI [20]
513 nM: TGI [37]
763 nM: TGI [7]
inactive: GI50 [5] 546 nM | GI50 [9] 953 nM | GI50 [12] 548 nM | GI50 [13] 743 nM | GI50 [16] 652 nM | GI50 [20] 688 nM | GI50 [21] 554 nM | GI50 [23] 573 nM | GI50 [25] 750 nM | GI50 [27] 603 nM | GI50 [28] 626 nM | GI50 [34] 429 nM | GI50 [39] 1070 nM | GI50 [40] 431 nM | GI50 [43] 786 nM | GI50 [44] 1220 nM
363 nM: TGI [19]
337 nM: TGI [31]
4130 nM: TGI [16]
711 nM: TGI [8]
7460 nM: TGI [44]
2200 nM: TGI [28]
491 nM: TGI [10]
4410 nM: TGI [23]
385 nM: TGI [11]
654 nM: TGI [33]
active: GI50 [1] 194 nM | GI50 [2] 397 nM | GI50 [3] 334 nM | GI50 [4] 208 nM | GI50 [6] 281 nM | GI50 [7] 288 nM | GI50 [8] 261 nM | GI50 [10] 208 nM | GI50 [11] 192 nM | GI50 [14] 170 nM | GI50 [15] 189 nM | GI50 [17] 398 nM | GI50 [18] 354 nM | GI50 [19] 212 nM | GI50 [22] 270 nM | GI50 [24] 224 nM | GI50 [26] 178 nM | GI50 [29] 325 nM | GI50 [30] 303 nM | GI50 [31] 193 nM | GI50 [32] 237 nM | GI50 [33] 260 nM | GI50 [35] 377 nM | GI50 [36] 290 nM | GI50 [37] 285 nM | GI50 [38] 261 nM | GI50 [41] 253 nM | GI50 [42] 397 nM | GI50 [45] 286 nM | GI50 [46] 217 nM | GI50 [47] 218 nM
732 nM: TGI [41]
495 nM: TGI [4]
691 nM: TGI [6]
1150 nM: TGI [27]
630 nM: TGI [38]
6440 nM: TGI [40]
988 nM: TGI [30]
1490 nM: TGI [17]

O=C(O)c1ccc(CN2CCC(CN[C@@H]3C[C@H]3c3ccccc3)CC2)cc1
> 100000 nM: TGI [1] | TGI [2] | TGI [3] | TGI [4] | TGI [5] | TGI [6] | TGI [7] | TGI [8] | TGI [9] | TGI [10] | TGI [11] | TGI [12] | TGI [13] | TGI [14] | TGI [15] | TGI [16] | TGI [17] | TGI [18] | TGI [19] | TGI [20] | TGI [21] | TGI [22] | TGI [23] | TGI [24] | TGI [25] | TGI [26] | TGI [27] | TGI [28] | TGI [29] | TGI [30] | TGI [31] | TGI [32] | TGI [33] | TGI [34] | TGI [35] | TGI [36] | TGI [37] | TGI [38] | TGI [39] | TGI [40] | TGI [41] | TGI [42] | TGI [43] | TGI [44] | TGI [45] | TGI [46] | TGI [47]
inactive: GI50 [1] > 100000 nM | GI50 [2] > 100000 nM | GI50 [3] > 100000 nM | GI50 [4] > 100000 nM | GI50 [5] > 100000 nM | GI50 [6] > 100000 nM | GI50 [7] > 100000 nM | GI50 [8] > 100000 nM | GI50 [9] > 100000 nM | GI50 [10] > 100000 nM | GI50 [11] > 100000 nM | GI50 [12] > 100000 nM | GI50 [13] > 100000 nM | GI50 [14] > 100000 nM | GI50 [15] > 100000 nM | GI50 [16] > 100000 nM | GI50 [17] > 100000 nM | GI50 [18] > 100000 nM | GI50 [19] > 100000 nM | GI50 [20] > 100000 nM | GI50 [21] > 100000 nM | GI50 [22] > 100000 nM | GI50 [23] > 100000 nM | GI50 [24] > 100000 nM | GI50 [25] > 100000 nM | GI50 [26] > 100000 nM | GI50 [27] > 100000 nM | GI50 [28] > 100000 nM | GI50 [29] > 100000 nM | GI50 [30] > 100000 nM | GI50 [31] > 100000 nM | GI50 [32] > 100000 nM | GI50 [33] > 100000 nM | GI50 [34] > 100000 nM | GI50 [35] > 100000 nM | GI50 [36] > 100000 nM | GI50 [37] > 100000 nM | GI50 [38] > 100000 nM | GI50 [39] > 100000 nM | GI50 [40] > 100000 nM | GI50 [41] > 100000 nM | GI50 [42] > 100000 nM | GI50 [43] > 100000 nM | GI50 [44] > 100000 nM | GI50 [45] > 100000 nM | GI50 [46] > 100000 nM | GI50 [47] > 100000 nM
